Test results from US20200375929A1, “METHODS AND COMPOSITIONS FOR THE TREATMENT OF DISEASES ASSOCIATED WITH CANCER, INFLAMMATION, OR IMMUNE RESPONSE” (Washington University, priority 2017, published 2020).
Entries after “also recorded” stand apart in the source; their conditions may differ.

How the values were obtained:
[1] = test system: imiquimod-induced psoriasis-like skin inflammation; test: IMQ-induced psoriasis mouse model; assay type: in vivo; details: DI daily i.p.
Procedure: RNA from cultured cells was isolated using a Total RNA I kit (OMEGA). RNA from mouse ear skin was extracted using RNAeasy mini kit (Qiagen) after tissue disruption with sterile zirconium beads on a MagNA Lyser (Roche). Isolated RNA was reverse transcribed using AffinityScript Multi-Temp reverse transcriptase (Agilent Technologies) according to the manufacturer's protocol. Reactions were performed in 96-well plates using a SYBR Green PCR Master mix (Thermo Fisher Scientific) using a LightCycler® 96 or LightCycler® 480 (Roche Diagnostics). All assays were performed at least in duplicates, and reaction mixtures in 20 μL volumes (96-plate) or 10 μL volumes (384-plate) were processed under the following cycling conditions: initial 10 min denaturation at 95° C., followed by 40 cycles at 95° C. for 10 s, 60° C. for 1 min. Threshold cycle (CT) values for each sample were determined by automated threshold analysis. Expression levels of all mRNAs were normalized to reference gene Actb in BMDMs or to Rpl19 in mouse keratinocytes and tissue samples; to ACTB in human blood monocytes or RPLP0 in human keratinocytes. […] Average ear thickness in each sample was quantified from images obtained at the identical settings using ImageJ. Thickness at 5 equidistant places in each image was quantified and mean of these values was used to represent results in each mouse.

BMDMs = test: Nascent protein synthesis (Click chemistry labeling) and proteomic profiling in BMDMs; assay type: cell-based, mouse; details: DI, LPS 1 h, metabolic labeling, proteomics
Procedure: BMDMs were plated 2×10^6 cells per well in 6-well plates. Cells were either (1) treated with DI (250 μM) for 12 h and then stimulated with LPS (100 ng/mL) for 1 h, or (2) only stimulated with LPS (100 ng/mL) for 1 h, or (3) only treated with DI (250 μM) for 12 h, or (4) neither treated with DI nor LPS. Cells were then washed 3× with PBS and lysed in 200 μL of urea buffer (8 M urea, 75 mM NaCl, 50 mM Tris pH 8.0, 1 mM EDTA). Lysates were then cleared by centrifugation at 20,000 g and protein concentrations were determined by BCA assay (Pierce). 15 μg of total protein per sample were processed further. Disulfide bonds were reduced with 5 mM dithiothreitol and cysteines were subsequently alkylated with 10 mM iodoacetamide. Samples were diluted 1:4 with 50 mM Tris/HCl (pH 8.0) and sequencing grade modified trypsin (Promega) was added in an enzyme-to-substrate ratio of 1:50. After 16 h of digestion, samples were acidified with 1% formic acid (final concentration). […]
BMDMs were grown in 12-well plate, […] per well and treated with DI (250 μM) for 10 h. […] Total protein concentration was determined using RC/DC™ Protein Assay (Biorad). […] Proteins were separated on 4%-20% polyacrylamide gradient gels (BioRad) and biotinylated proteins were detected by western blot with streptavidin-HRP conjugate (1:1000, #554066, BD Pharmingen). […]

With C=C(CC(=O)OC)C(=O)OC [DI, dimethyl itaconate] the “IκBζ target gene expression (Defb4, S100a9, S100a7a, Lcn2) in ear skin” value ([1]; IMQ 7 days, qPCR) was “markedly reduced”, the psoriatic skin pathology ([1]; IMQ topically on ears 7 days) was “significant improvement of the psoriatic pathology; also recorded: no detectable skin changes” and the global protein synthesis (BMDMs) was “did not affect protein synthesis globally”.
